Results published in the supplement of paper PMC10307832.

Key:
Test in all cases: relative viability (nuclei count vs DMSO), 5 days (fraction); higher = more cells survive
[1] = compound: C1CC1C(=O)NC2=NNC3=C2C=CC(=C3)C4=CC(=CC=C4)C(=O)NC5CC5 [XMD13-2] + Cc1cc(Nc2cc(N3CCN(C)CC3)nc(Sc3ccc(NC(=O)C4CC4)cc3)n2)n[nH]1 [Tozasertib] (partner 0.1 µM)
Summary of the method: (§1)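 Values are medians from duplicate plates. Each reflects relative viability, defined as the nuclei count of treated wells over that of vehicle wells. Lung cancer cell lines in 1536-well plates were pin-tool dosed one day after seeding with one drug alone or with a fixed anchor-drug dose plus five library-drug doses (not always all listed) in √10 steps, then fixed, stained and imaged at 4× after 5 days.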

[2] = compound: C1CC1C(=O)NC2=NNC3=C2C=CC(=C3)C4=CC(=CC=C4)C(=O)NC5CC5 [XMD13-2] + CC1(C)CCC(c2ccc(Cl)cc2)=C(CN2CCN(c3ccc(C(=O)NS(=O)(=O)c4ccc(N[C@H](CCN5CCOCC5)CSc5ccccc5)c(S(=O)(=O)C(F)(F)F)c4)cc3)CC2)C1 [Navitoclax] (partner 0.5 µM)
Summary of the method: as §1

[3] = compound: Cc1ccc(C(=O)Nc2cccc(C(F)(F)F)c2)cc1Nc1cncc(C(N)=O)c1 [ALW-II-49-7] + Nc1ncn([C@H]2C[C@H](O)[C@@H](CO)O2)c(=O)n1 [Decitabine] (partner 2 µM)
Summary of the method: as §1

[4] = compound: Cc1nc(Nc2ncc(C(=O)Nc3c(C)cccc3Cl)s2)cc(N2CCN(CCO)CC2)n1 [Dasatinib] + CS(=O)(=O)CCNCc1ccc(-c2ccc3ncnc(Nc4ccc(OCc5cccc(F)c5)c(Cl)c4)c3c2)o1 [Lapatinib] (partner 2 µM)
Summary of the method: as §1

Cell Line	relative viability ([1]; first compound 0.05 µM)	relative viability ([1]; first compound 0.1581 µM)	relative viability ([1]; first compound 0.5 µM)	relative viability ([1]; first compound 1.581 µM)	relative viability ([1]; first compound 5 µM)	relative viability ([2]; first compound 0.05 µM)	relative viability ([2]; first compound 0.1581 µM)	relative viability ([2]; first compound 0.5 µM)	relative viability ([2]; first compound 1.581 µM)	relative viability ([2]; first compound 5 µM)	relative viability ([3]; first compound 0.08 µM)	relative viability ([3]; first compound 0.253 µM)	relative viability ([3]; first compound 0.8 µM)	relative viability ([3]; first compound 2.53 µM)	relative viability ([3]; first compound 8 µM)	relative viability ([4]; first compound 0.005 µM)	relative viability ([4]; first compound 0.01581 µM)	relative viability ([4]; first compound 0.05 µM)	relative viability ([4]; first compound 0.1581 µM)	relative viability ([4]; first compound 0.5 µM)
201T	1.02	0.921	0.867	0.872	0.828	1.22	1.25	1.2	1.19	1.29	0.832	0.84	0.872	0.846	0.904	0.931	0.81	0.924	0.875	0.486
A549						1.53	1.23	1.13	1.16	1.17	0.207	0.211	0.246	0.335	0.254	0.955	0.824	0.83	0.673	0.194
A-427	0.213	0.199	0.2	0.159	0.195	1.01	0.961	1.09	0.87	0.989	0.531	0.585	0.616	0.612	0.655	0.89	1.06	0.893	0.646	0.551
ABC-1	0.187	0.2	0.163	0.213	0.205						1.02	1.11	1.01	1.35	0.947	0.993	0.896	1.38	0.872	0.693
BEN	0.512	0.436	0.491	0.488	0.42	0.186	0.0776	0.0786	0.0451	0.0694	0.693	0.751	0.776	0.728	0.656	0.617	0.362	0.432	0.312	0.336
CAL-12T	0.344	0.41	0.307	0.31	0.368	1.41	1.06	1	1.18	1.24						0.624	0.551	0.597	0.252	0.172
COR-L23	0.232	0.18	0.197	0.18	0.185	1.03	1.07	1.18	1.11	0.899	0.426	0.521	0.408	0.501	0.439	0.983	0.853	0.955	0.74	0.737
COR-L 105	0.374	0.385	0.339	0.376	0.425	0.818	0.761	1.25	0.684	0.872	0.722	0.71	0.673	0.58	0.616	0.352	0.301	0.28	0.256	0.318
Calu-6						0.915	0.829	0.808	0.776	0.548						0.924	0.776	0.848	0.642	0.59
ChaGo-K-1	0.234	0.214	0.254	0.222	0.258	1.06	0.882	0.799		0.942	0.541	0.472	0.526	0.537	0.546					
EBC-1						0.563	0.375	0.404	0.232	0.176						0.248	0.217	0.236	0.233	0.252
EKVX	0.468	0.414	0.405	0.394	0.45	1.17	0.869	0.859	0.973	0.997	0.513	0.321	0.327	0.318	0.408	0.205	0.165	0.149	0.123	0.0913
EMC-BAC-2	0.284	0.28	0.19	0.273	0.267	1.29	1.22	1.21	1.18	1.27	1.01	1.02	0.982	0.947	0.907	0.936	0.708	0.613	0.667	0.334
EPLC-272H	0.228	0.289	0.262	0.269	0.136	1.23	1.13	1.26	0.814	0.649	0.326	0.381	0.329	0.373	0.295	0.866	0.913	0.938	0.79	0.346
H3255	0.567	0.844	0.757	0.487	0.507	0.709	0.564	0.518	0.444	0.526	0.611	0.511	0.662	0.577	0.425	0.303	0.212	0.208	0.155	0.204
HARA	0.0933	0.117	0.106	0.0964	0.105	1.1	1.08	1.16	1.13	1.14	0.689	0.47	0.497	0.52	0.663	0.851	0.701	0.505	0.201	0.137
HCC-15	0.522	0.422	0.402	0.425	0.463	0.792	0.661	0.704	0.725	0.535	0.596	0.654	0.626	0.624	0.644	0.887	0.942	0.846	0.764	0.658
HCC-44	1.06	1.09	1.09	0.903	0.842	1.01	1.03	1.12	0.949	1	0.971	0.974	0.945	0.996	0.913	1.03	0.942	1.07	0.844	0.555
HCC-78	0.362	0.436	0.372	0.346	0.282	0.851	0.641	0.817	0.582	0.671	0.68	0.639	0.71	0.666	0.619	0.359	0.694	0.696	0.478	0.19
HCC-366	0.0882	0.0936	0.127	0.115	0.116	1.12	1.07	1.13	1.06	1.19	0.354	0.371	0.374	0.385	0.307	0.99	0.713	0.695	0.446	0.337

Cell Line	relative viability ([1]; first compound 0.05 µM)	relative viability ([1]; first compound 0.1581 µM)	relative viability ([1]; first compound 0.5 µM)	relative viability ([1]; first compound 1.581 µM)	relative viability ([1]; first compound 5 µM)	relative viability ([2]; first compound 0.05 µM)	relative viability ([2]; first compound 0.1581 µM)	relative viability ([2]; first compound 0.5 µM)	relative viability ([2]; first compound 1.581 µM)	relative viability ([2]; first compound 5 µM)	relative viability ([3]; first compound 0.08 µM)	relative viability ([3]; first compound 0.253 µM)	relative viability ([3]; first compound 0.8 µM)	relative viability ([3]; first compound 2.53 µM)	relative viability ([3]; first compound 8 µM)	relative viability ([4]; first compound 0.005 µM)	relative viability ([4]; first compound 0.01581 µM)	relative viability ([4]; first compound 0.05 µM)	relative viability ([4]; first compound 0.1581 µM)	relative viability ([4]; first compound 0.5 µM)
HCC-827	0.428	0.409	0.427	0.401	0.386	0.962	1.02	1	0.978	0.898	0.294	0.307	0.335	0.331	0.271	0.173	0.18	0.139	0.16	0.131
HOP-62	0.363	0.418	0.399	0.393	0.271	1.18	1.07	1.19	1.05	1.04	0.207	0.286	0.165	0.223	0.285	1.02	0.971	0.789	0.983	0.337
IA-LM						0.821	0.867	0.724	0.769	0.457						0.996	0.828	1.08	0.55	0.436
LC-2-ad	0.519	0.528	0.436	0.41	0.45	0.772	0.503	0.519	0.368	0.375	0.84	0.845	0.861	0.8	0.863	0.648	0.876	0.952	0.699	0.186
LCLC-97TM1	0.235	0.198	0.209	0.194	0.104	0.475	0.456	0.278	0.409	0.227	0.256	0.201	0.252	0.236	0.207	1.2	1.2	0.772	0.904	0.362
LCLC-103H	0.542	0.326	0.492	0.545	0.416						0.757	0.781	0.726	0.727	0.684					
NCI-H358	0.126	0.121	0.102	0.114	0.0991						0.19	0.183	0.22	0.234	0.232	0.484	0.377	0.295	0.251	0.291
NCI-H441	0.808	0.652	0.608	0.591	0.53	0.93	0.685	0.715	0.615	0.762	0.257	0.229	0.253	0.208	0.253					
NCI-H522	0.531	0.651	0.593	0.483	0.412						0.67	0.669	0.697	0.732	0.692					
NCI-H650	0.783	0.748	0.781	0.716	0.723						0.333	0.334	0.314	0.306	0.321	0.471	0.907	0.723	0.555	0.387
NCI-H661	0.335	0.307	0.33	0.36	0.427						0.519	0.583	0.574	0.541	0.5	0.295	0.29	0.276	0.318	0.234
NCI-H1299						1.04	1.03	1.06	1.03	1.09						0.971	0.971	1.1	0.529	0.299
NCI-H1563																0.868	0.708	0.758	0.656	0.506
NCI-H1623	0.5	0.456	0.437	0.42	0.483															
NCI-H1648	0.5	0.314	0.608	0.51	0.342						0.545	0.48	0.531	0.454	0.509					
NCI-H1703						1.59	1.19	1.24	0.889	1.16						0.638	0.326	0.429	0.185	0.16
NCI-H1792						0.746	0.591	0.715	0.491	0.886	0.553	0.356	0.486	0.506	0.633	0.885	0.859	0.907	0.673	0.364
NCI-H2228	0.267	0.32	0.273	0.209	0.237	1.15	0.949	0.643	0.668	0.841						0.829	1.06	0.705	0.731	0.551
NCI-H2342	0.547	0.421	0.525	0.603	0.575						0.714	0.767	0.697	0.693	0.783					
SW 900	0.62	0.573	0.506	0.473	0.533						0.506	0.487		0.552	0.661					
